Measured values: US6605639B1, “Ligands of nuclear receptor” (Nuclear Receptor Research, Ltd., priority 1998, dated 2003)
Converted amounts (≈) assume the structure as drawn.

What was measured:
mouse and rat = assay: Oral administration of ascochlorin to rodents; type: in vivo
Description: These effects make ascochlorin adequate as a remedy for insulin resistance syndrome. In animal experiments, however, the anorexic effect is similar to the effect of enhancing the action of insulin, which makes it highly difficult to evaluate the drug effect as an insulin enhancing agent. Thus, attempts were made to synthesis derivatives having a relatively weak anorexic effect by synthesizing various derivatives through the modification of the molecular structure of ascochlorin.

[1] = test system: patients suffered from noninsulin dependent diabetes (type II); assay: Phase II clinical test; type: in vivo, human; settings: for Fasting blood glucose level, Decrease / Serum total cholesterol level, Decrease / Fasting blood glucose level / Serum total cholesterol level: 360 mg/day; for Fasting blood glucose level / Serum total cholesterol level: n = 30, Mean ± SE; for Boredom No, number of patients / Boredom Yes, number of patients: total 15; for Neuralgia No, number of patients / Neuralgia Yes, number of patients: total 16; for Feebleness No, number of patients / Feebleness Yes, number of patients: total 25
Procedure: A phase II clinical test of Compound-6 involving 30 patients suffered from noninsulin dependent diabetes (type II) was carried out. Compound-6 was administered in a daily dose of 6 mg/kg (i.e., administration of two tablets weighing 60 mg after each meal). The administration was continued for 12 weeks.
The facts clarified by this test are as follows.
The 30 patients with type II diabetes were inquired about thirsty and evaluated in 4 grades, namely, (+++) very strongly thirsty; (++) strongly thirsty; (+) thirsty; and (−) not thirsty. […] The treatment ratio amounted to 100%.

Solubility = type: physicochemical
Procedure: Subsequently, Compound-6 was added to the serum to examine the formation of a Schiff base in vitro. […] When Compound-6 dissolved in dimethyl sulfoxide at a high concentration was added in portions to bovine serum, Compound-6 was dissolved in the serum at a ratio of […] (i.e., 1000-fold) and the serum turned yellow depending on the concentration of Compound-6. When an organic solvent (ethanol, acetonitrile, etc.) was added to this yellow serum, the coloring matter was not dissolved in the organic solvent but precipitated as yellow serum protein. The organic solvent layer contained no Compound-6. However, Compound-6 was quantitatively recovered as an acetonitrile solution by adding acetonitrile containing 1% of acetic acid to this yellow precipitate and allowing the mixture to stand for 1 week. In a reaction between a protein and a drug molecule, there has been taken no consideration into the conversion into a novel compound via the formation of a covalent bond between the drug and serum protein in vivo. However, it is obvious that aldehyde group in the benzene ring of the compounds of the present invention and amino group of serum protein form a Schiff base on the basis of the following facts. (1) The compounds of the present invention cannot be detected by any usual methods from the serum of animals to which the compounds have been administered. (2) The compounds of the present invention are released by adding an acidified organic solvent in a large amount to the serum and allowing to stand at room temperature for about 1 week. (3) When added to serum in vitro, the compounds of the present invention are dissolved at a ratio as high as 1000-fold and can be recovered by the same method as used in recovering the compounds of the present invention from the serum of animals to which the compounds have been administered. (4) The serum of animals, to which the compounds have been administered, or serum containing the compounds of the present invention turns into yellow.

db/db mice = assay: Calcium metabolism in db/db mice; type: in vivo, mouse; settings: administration for 1 week
Description: RXR also forms a heterodimer with a nuclear receptor, VDR, which acts with active vitamin D3 (1a,25-dihydrocyvitamin D3) as a ligand. However, no study has been made so far how the formation of this heterodimer means in vivo. Thus the effect of this heterodimer on gene transcription and, in its turn, its physiological meaning still remain unknown. Activated vitamin D3 is essential for bone development and growth in children. Also, it is essential for preventing osteoporosis and bone fracture in aged and sick persons. In spite of such meaningful effects, studies have not been conducted to clarify the function of the heterodimer of VDR with RXR. The inventors studied calcium metabolism in db/db mice and the effect of Compound-14 on the calcium metabolism. This study was partly reported in 1992 (Tomoyoshi Hosokawa, Nogei Kagaku Kai-shi (J. Agr. Chem.), 66:1221-1226, 1992). Compared with normal litter of the same age, db/db mice show abnormally high levels of urinary calcium, blood calcium, blood calcitonin and parathyroid hormone. […] By feeding db/db mice over a long time of period (4 weeks), it was found out that these animals suffered form a decrease in bone mineral density compared with normal litter of the same age. […]

Q: Which results are given for “3-[5-[l(R),2(S),6(S)-trimethyl-3-oxocylohexyl]-3-methyl-2,4-pentadienyl]-2,4-dihydroxy-5-chloro-6-methylbenzaldehyde [Compound-1]”?
A: effects of oral administration (mouse and rat; mouse and rat): anorexic effect as well as effects of lowering the blood glucose level, the serum lipid level and the serum insulin level; blood pressure (mouse and rat; oral, anesthetized rats and hypertensive rats): potent effect of lowering blood pressure

Q: For COc1c(Cl)c(C)c(C=O)c(O)c1C/C=C(C)/C=C/[C@@]1(C)[C@H](C)CCC(=O)[C@@H]1C [Compound-6, 4-O-methylASC], which “Fasting blood glucose level, Decrease” value ([1]; 4th week) is on record?
A: 12.37%

Q: What about the “Serum total cholesterol level, Decrease” value ([1]; 4th week) of the same compound?
A: 16.6%

Q: And the “Fasting blood glucose level” value ([1]; 4th week)?
A: 165 ± 4.3 mg/dL

Q: And the “Serum total cholesterol level” value ([1]; 4th week)?
A: 265 ± 4.4 mg/dL

Q: And the “Boredom No, number of patients” value ([1]; 4th week)?
A: 5

Q: And the “Boredom Yes, number of patients” value ([1]; 4th week)?
A: 10

Q: And the “Neuralgia No, number of patients” value ([1]; 4th week)?
A: 9

Q: What about the “Neuralgia Yes, number of patients” value ([1]; 4th week) of the same compound?
A: 7

Q: What about the “Feebleness No, number of patients” value ([1]; 4th week) of the same compound?
A: 10

Q: What about the “Feebleness Yes, number of patients” value ([1]; 4th week) of the same compound?
A: 15

Q: And the “Fasting blood glucose level, Decrease” value ([1]; 8th week)?
A: 15.45%

Q: And the “Serum total cholesterol level, Decrease” value ([1]; 8th week)?
A: 24.3%

Q: And the “Fasting blood glucose level” value ([1]; 8th week)?
A: 159 ± 2.4 mg/dL

Q: What about the “Serum total cholesterol level” value ([1]; 8th week) of the same compound?
A: 240 ± 4.4 mg/dL

Q: And the “Boredom No, number of patients” value ([1]; 8th week)?
A: 13

Q: What about the “Boredom Yes, number of patients” value ([1]; 8th week) of the same compound?
A: 2

Q: What about the “Neuralgia No, number of patients” value ([1]; 8th week) of the same compound?
A: 10

Q: What about the “Neuralgia Yes, number of patients” value ([1]; 8th week) of the same compound?
A: 6

Q: And the “Feebleness No, number of patients” value ([1]; 8th week)?
A: 19

Q: And the “Feebleness Yes, number of patients” value ([1]; 8th week)?
A: 6

Q: What about the “Fasting blood glucose level, Decrease” value ([1]; 12th week) of the same compound?
A: 18.05%

Q: And the “Serum total cholesterol level, Decrease” value ([1]; 12th week)?
A: 27.2%

Q: What about the “Fasting blood glucose level” value ([1]; 12th week) of the same compound?
A: 154 ± 4.4 mg/dL

Q: And the “Serum total cholesterol level” value ([1]; 12th week)?
A: 231 ± 4.4 mg/dL

Q: And the “Boredom No, number of patients” value ([1]; 12th week)?
A: 15

Q: And the “Boredom Yes, number of patients” value ([1]; 12th week)?
A: 0

Q: What about the “Neuralgia No, number of patients” value ([1]; 12th week) of the same compound?
A: 14

Q: And the “Neuralgia Yes, number of patients” value ([1]; 12th week)?
A: 2

Q: What about the “Feebleness No, number of patients” value ([1]; 12th week) of the same compound?
A: 24

Q: What about the “Feebleness Yes, number of patients” value ([1]; 12th week) of the same compound?
A: 1

Q: What about the “thirst, treatment ratio” value ([1]; 30 patients, 12 weeks) of the same compound?
A: 100%

Q: What about the “glucose tolerance (50 g of glucose orally loaded, fasting)” value ([1]; compared with the data before the administration) of the same compound?
A: significantly ameliorated

Q: And the “blood pressure of patients with hypertension (7) or borderline hypertension (17)” value ([1]; human, in vivo)?
A: significantly lowered

Q: And the “lowering the serum neutral fat level” value ([1]; human, in vivo)?
A: little effect

Q: And the “urinary glucose, urine collected for 24 hours” value ([1]; human, in vivo)?
A: significantly reduced

Q: And the dissolved in bovine serum at a ratio of (Solubility; added in portions from dimethyl sulfoxide solution)?
A: 800 µg/mL

Q: And the “solubility in serum relative to PBS” value (Solubility; bovine serum)?
A: 1000 fold

Q: And the solubility (Solubility; phosphate buffer saline (PBS))?
A: 0.8 µg/mL (≈ 1.91 µM)

Q: Which “urinary calcium, blood calcium and calcitonin levels” value (db/db mice) does the source give for CC(/C=C/[C@@]1(C)[C@H](C)CCC(=O)[C@@H]1C)=C\Cc1c(O)c(C=O)c(C)c(Cl)c1OCC(=O)O [Compound-14, 4-O-carboxymethylASC] here?
A: significantly lowered
